According to patent publication EP2711366A1, “Cationic triphenylamine derivatives activable by visible and Infra Red light for inducing and imaging apoptosis in cancer cells” (Institut Curie, priority 2012, dated 2014):

Key:
HeLa cells [1] = test: Cytophototoxicity by MTT assay under illumination; assay type: cell-based; details: irradiance 60mW/cm^2
Experimental: (§1) Different experiments were conducted and described below: • MCF7 cells were treated with 2µM of TP2Py or TP3Bzim and exposed to illumination (Fig.9A); • HeLa cells were treated with 2µM of TP2Py or TP3Bzim and exposed to illumination (Fig.9B); • MCF7 cells were treated with TP2Py, 40 min illumination (black circles) or without illumination (white circles) (Fig.9C) • HeLa cells were treated with TP2Py [30 min illumination (black circles) or without illumination (white circles)] or TP3Bzim [15 min illumination (black triangles) or without illumination (white triangles)]
(§2) For each experiment, the source of excitation was a Mercury lamp (130W; 380-600nm) with an excitation filter centered at 452nm (± 45 nm), irradiance, 60mW/cm^2.
(§3) First, the experiment was calibrated by determining the time of illumination exposure which leads to the toxicity 50%, for a given concentration of TPA (2 µM) and for an irradiance of 60mW/cm^2. […] This characteristic time was then used for the plots shown in Fig. 9C and 9D which represent the cell viability as a function of TPA concentration (in HeLa and MCF-7 cells, respectively).

[2] = tested on: PARP (poly-ADP ribose polymerase) cleavage in HeLa cells; test: PARP cleavage by Western blot and cell morphology after illumination; assay type: cell-based; details: 2 µM, 2h, 17 mW.cm^-2, 452 nm filter
Experimental: HeLa cells were plated in 6-well plates (4.10^5 cells/well) and incubated with 2 µM TP2Py for 2h at 37°C. After varying illumination times (up to 90min) at 17 mW.cm^-2 (Mercury lamp (130W; 380-600nm) + excitation filter centered at 452 nm (± 45 nm)), cells were collected by scraping, washed once in ice-cold PBS, treated with lysis buffer (1% Nonidet P-40, 20 mM Tris pH 8.0, 137 mM NaCl, 10% glycerol (v/v)) supplemented with 1 mM phenyl-methylsulfonyl fluoride, 1 mM sodium orthovanadate and anti-protease cocktail (Complete, Boehringer Mannheim, Germany) for 20 min on ice and further centrifuged at 10000g for 10 min. Protein concentrations were determined using the bicinchoninic acid method (micro BCA, Pierce, USA). 40µg of detergent soluble proteins were separated by SDS-PAGE under reducing conditions followed by Western blotting. Membranes were first incubated overnight at 4°C with the rabbit primary polyclonal antibody anti-PARP (Cell Signaling Technology). Membranes were then probed with horseradish peroxidase-labelled anti-rabbit IgG (dilution, 1/2000) (Dakocytomation). Detection was based on a chemiluminescence detection system (GE Healthcare, Orsay, France). […]
The cleavage of PARP, a hallmark of apoptosis, was assessed by Western blot using an anti-PARP antibody that recognizes both the entire and cleaved PARP (Fig. 11).

HeLa cells [3] = tested on: HeLa cells
Experimental: as §1, §2, §3

DNA = details: cited from earlier work
living MCF-7 cells = test: One-photon confocal fluorescence microscopy, photo-induced nuclear translocation and membrane blebbing; assay type: cell-based
Experimental: One-photon epifluorescence and confocal images were obtained using a SP2 confocal microscope (Leica MicroSystem) equipped with an incubation chamber (37°C, CO2 5%). Excitation and emission filters for epifluorescence were 450-490 nm and 515-700 nm, respectively. A continuous laser line (458 nm) was used for excitation in the confocal mode.
The photo-induced nuclear translocation and membrane blebbing were next assessed using confocal fluorescence microscopy [λexc = 458 nm; emission slit settings: 560-720nm and 530-690nm for TP2Py and TP3Bzim, respectively] under experimental conditions similar to those described in experiment 1 for epifluorescence experiments. The corresponding transmission images illustrating the concomitant membrane blebbing are shown below the confocal fluorescence images. Living MCF7 cells were incubated with 2µM TP3Bzim or TP2Py for 2 hours before observation. As shown in Fig. 5A (TP2Py) and in Fig. 5B (TP3BZim), the results obtained with confocal imaging were similar to those obtained with epifluorescence imaging (experiment 1), with however, some discrepancies in the time courses of event appearance, most likely due to the power of the excitation source which is different between epifluorescence and confocal experiments (see below). […] Based on both criteria (re-localization of the fluorescence signal and the formation of blebs), the deduced fluences were 22 and 40 J/cm^2 for TP2Py and TP3Bzim, respectively. […]
The TP2Py compound at a concentration of 2 µM was first incubated with living MCF-7 cells for 2 hours and then observed with confocal microscope with varying illumination power of the laser source [λ=458 nm; emission slit setting: 560-720 nm]. […] For each condition, the fluorescence intensity in ROIs corresponding to the nucleus was plotted as a function of time (the initial time value, t = 0, represents the first observation) (FIG.7C). Using integration time based on tmax values, light dose values, determined from experiments performed at irradiance of 5.6 or 30 mW/cm^2, were consistent (27.6 and 27 J/cm^2 respectively). These values are in accordance with the above-mentioned value for TP2Py (fluence, 22 J/cm^2 in Fig. 5).
Living MCF-7 cells were treated with varying concentrations of TP2Py for two hours (2µM; 0.2µM and 0.02µM) and observed with a confocal microscope [λexc = 458nm; irradiance 30mW/cm^2, emission slit setting: 560-720nm.] (FIG 8A: 2µM; FIG 8B: 0.2µM; FIGBC: 0.02µM).

[4] = 2µM, 2 hours, λexc 458 nm, irradiance 30 mW/cm^2

For `C[n+]1ccc(/C=C/c2ccc(N(c3ccccc3)c3ccc(/C=C/c4cc[n+](C)cc4)cc3)cc2)cc1` [TP2Py], the “illumination time required for the same TC50 under illumination” value (HeLa cells [1]; Mercury lamp, filter 452nm) was 30 min, the corresponding light dose (HeLa cells [1]) was 108 J/cm^2 and the “illumination time after which PARP cleavage was detected” value [2] was 60 min. The “dark toxicity (concentration below which negligible)” value (HeLa cells [3]) was no less than 50 µM, the “maximum of emission in vitro, DNA-bound” value (DNA; Allains et al. 2007) was 634 nm and the “λmax,emission” value (DNA; b156 attributes 634 nm to DNA-bound TP2Py in vitro (Allains et al. 2007)) was 634 nm. The “time at which the first blebs appeared” value (living MCF-7 cells; 20nM, constant light excitation, transmission mode) was 75 min, the light dose (living MCF-7 cells; 0.2µM, irradiance 30 mW/cm^2) was 306 J/cm^2 and the “tmax of nuclear re-localization” value (living MCF-7 cells; 0.2µM, irradiance 30 mW/cm^2) was greater than 2 h. The “deduced fluence (re-localization of the fluorescence signal and formation of blebs)” value (living MCF-7 cells; 2µM, 2 hours, confocal, λexc 458 nm (Fig. 5)) was 22 J/cm^2, the “lag period before increase of fluorescence emission intensity in the nucleus” value (living MCF-7 cells; [4]) was 2 to 4 min and the “time of maximum fluorescence emission intensity in the nucleus” value (living MCF-7 cells; [4]) was 8 to 10 min. The “light dose (integration time based on tmax)” value (living MCF-7 cells; 2 µM, irradiance 5.6 mW/cm^2) was 27.6 J/cm^2, the “tstart of nuclear re-localization” value (living MCF-7 cells; 2 µM, irradiance 5.6 mW/cm^2) was 50 min and the “light dose (integration time based on tmax)” value (living MCF-7 cells; 2 µM, irradiance 30 mW/cm^2) was 27 J/cm^2. For the same compound, the “tmax of nuclear re-localization” value (living MCF-7 cells; 2 µM, irradiance 30 mW/cm^2) was 0.25 h and the “tstart of nuclear re-localization” value (living MCF-7 cells; 2 µM, irradiance 30 mW/cm^2) was 4 min.
